Like-named read-outs stand apart in the source and are kept apart here.
Tests used:
[1] = tested on: cation transporters (OCTs, MATEs); test: [^11C]Metoclopramide PET in C57BL/6 wild-type mice without and with unlabeled metoclopramide, cimetidine or sulpiride
Experimental: (§1) PET imaging was performed under isoflurane/air anesthesia and animals were warmed throughout the experiment while constantly monitoring body temperature and respiratory rate. A microPET Focus220 scanner (Siemens Medical Solutions, Knoxville, TN, USA) was used for PET imaging. […] List mode data were acquired with a timing window of 6 ns and an energy window of 250–750 keV. At the end of the PET scans, blood was collected from the retro-bulbar plexus and animals were killed by cervical dislocation. Blood was centrifuged to obtain plasma and aliquots of blood and plasma were counted for radioactivity in a gamma counter.
Using the medical image data examiner software AMIDE ([33]), the left ventricle of the heart (image-derived arterial blood curve), brain, liver, left kidney and urinary bladder were manually outlined as regions of interest on the PET images, guided by representative magnetic resonance images obtained for a few animals on a 1-T benchtop MR scanner (ICON; Bruker BioSpin GmbH), to derive concentration-time curves expressed in units of percent injected dose per mL (%ID/mL).
The area under the concentration-time curves (AUC, %ID/mL x min) was calculated for each region of interest using Prism 8 Software (GraphPad, La Jolla, CA, USA). […] VE is the y-intercept of the integration plot. CLint,urine was obtained by performing linear regression analysis of a plot of Xint,urine versus AUC0-t,kidney and calculating the slope of the regression line.
The plasma concentration was obtained by multiplying the concentration in the left ventricle of the heart by the plasma/blood radioactivity ratio, determined from the blood sample collected at the end of the PET scan.

[2] = mean ± SD
Experimental: Blood was centrifuged to obtain plasma, the liver and the kidneys were removed and urine was collected. Proteins were precipitated by the addition of acetonitrile (1 μL/μL plasma; 1000 μL for the liver, 200 μL for the kidneys and 0.5 μL/μL urine). All solutions were vortexed and centrifuged. […] Detection was performed by placing the TLC plates on multisensitive phosphor screens (PerkinElmer Life Sciences, Waltham, MA). The screens were scanned at 300 dpi resolution using a PerkinElmer Cyclone® Plus Phosphor Imager (Perkin-Elmer Life Sciences).
as §1

[3] = target: mouse MATEs; settings: read-out: inhibition constant Ki; cited from earlier work
[4] = target: mouse OCTs; settings: read-out: inhibition constant Ki; cited from earlier work
[5] = tested on: CYP2D6; settings: cimetidine ref 39; metoclopramide ref 10, 11; cited from earlier work
[6] = tested on: human P-glycoprotein (P-gp/ABCB1); settings: cited from earlier work
[7] = tested on: human OCT1; settings: cited from earlier work
[8] = cited from earlier work
[9] = single oral or intravenous dose; cited from earlier work
[10] = tested on: CYP2D6; parameters: method as in PMID 21740075; settings: orally administered, humans, estimated; cited from earlier work
[11] = integration plot 0.4 to 4 min, range over baseline and treatment groups, C57BL/6 mice
[12] = C57BL/6 female mice, baseline, 15 min after radiotracer injection
[13] = C57BL/6 female mice, cimetidine (150 mg/kg), 15 min
[14] = FVB male/female Slc22a1/2^(−/−) mice, 15 min
[15] = FVB male/female wild-type mice, 15 min

CCN(CC)CCNC(=O)c1cc(Cl)c(N)cc1O[11CH3] [[^11C]metoclopramide]
Maximum amount of radioactivity in the kidneys ([1]; C57BL/6 wild-type mice, assuming average mouse organ volumes from literature): approximately 17 % of the injected dose | Time to maximum concentration of radioactivity in the kidneys and liver ([1]; C57BL/6 wild-type mice, i.v. microdose): ≤ 5 min | Amount of radioactivity excreted into the urinary bladder ([1]; end of the 90-min PET scan): approximately 45 % of the injected dose | kuptake,kidney (rate constant for uptake of total radioactivity from blood into the kidneys) [1, 11]: 0.5–1 mL/min/mL kidney | kuptake,liver (rate constant for uptake of total radioactivity from blood into the liver) [1, 11]: 0.2–0.6 mL/min/mL liver | Decrease of urinary excretion ([1]; the different investigated treatments vs baseline, wild-type mice): up to 3.8 fold | Percentage of unchanged [^11C]metoclopramide in kidney [2, 12]: 64 ± 6% | Percentage of unchanged [^11C]metoclopramide in urine [2, 12]: 29 ± 4% | Percentage of unchanged [^11C]metoclopramide in kidney [2, 13]: 96 ± 2 % | Percentage of unchanged [^11C]metoclopramide in urine [2, 13]: 87 ± 4 % | Percentage of unchanged [^11C]metoclopramide in kidney ([2]; C57BL/6 female mice, co-administration of unlabeled metoclopramide (5 mg/kg), 15 min): 74 ± 4% | Percentage of unchanged [^11C]metoclopramide in urine ([2]; C57BL/6 female mice, sulpiride (25 mg/kg), 15 min): 36 ± 5% | Percentage of unchanged [^11C]metoclopramide in kidney [2, 14]: 72 ± 8% | Percentage of unchanged [^11C]metoclopramide in urine [2, 14]: 48 ± 10% | Percentage of unchanged [^11C]metoclopramide in kidney [2, 15]: 70 ± 20% | Percentage of unchanged [^11C]metoclopramide in urine [2, 15]: 64 ± 22%

CN/C(=N/CCSCc1nc[nH]c1C)NC#N [cimetidine]
Ki [3]: 1 to 4 µM | Ki [4]: 54 to 143 µM | CYP2D6 inhibition [5]: potent

CCN(CC)CCNC(=O)c1cc(Cl)c(N)cc1OC [metoclopramide]
Substrate of human P-gp [6]: weak substrate | Share of cellular uptake related to OCT1 activity ([7]; human OCT1 transfected cell line): 45% | Substrate of human OCT1 ([7]; in vitro): substrate | pKa [8]: 9.71 | Fraction in protonated form ([8]; physiological pH): more than 99% | Fraction of dose excreted unchanged in urine [9]: Approximately 20% | CYP2D6 inhibition [5]: potent inhibitor | Share of total clearance accounted for by CYP2D6 metabolism [10]: 44%

Reference: article PMC7902338 (Pharmaceutical Research, 2021)
